Assay [1] relates to T1, FMO (flavin-containing monooxygenase).
T1 construct: gene Fmo1; native, homogenate of cultured thoracic aortic endothelial cells; FMO isoform not resolved
Kind of assay: inhibition of imipramine N-oxidation in cell homogenate, HPLC-UV. Format: biochemical, Rattus norvegicus. Conditions: competitive with imipramine, methimazole 1 μmol/L, NADPH-regenerating system, 37 °C, FMO isoform unresolved, read-out: apparent K i.

Assay [2] has the same test system. The assay is described as follows: imipramine N-oxide formation in cell homogenate, HPLC-UV. The class given is biochemical, Rattus norvegicus. To be noted: NADPH-regenerating system, pH 7.4, 37 °C, apparent Km, FMO isoform unresolved. The text has this:
imipramine N-oxide formation in cell homogenate, HPLC-UV on FMO (flavin-containing monooxygenase)

Another assay relates to CYP2C11 and CYP3A2. To be noted: read-out: K m (μmol/L); NADPH-regenerating system; pH 7.4; 37 °C; apparent Km; homogenate, mixed CYPs assigned by anti-CYP antibodies. The text has this: desipramine (N-demethylate) formation in cell homogenate, HPLC-UV on CYP2C11 and CYP3A2

With `Cn1cc[nH]c1=S` [methimazole], in assay [1], the Ki is 0.8 µM.
Regarding `CN(C)CCCN1c2ccccc2CCc2ccccc21` [imipramine], the Km in assay [2] stood at 20 ± 4.5 µM; in the assay on CYP2C11 and CYP3A2, 39.9 ± 5.3 µmol/L.
